The values that follow come from patent publication US8771611B2, “System and methods of log-scale concentration gradients” (Auburn University, priority 2011, dated 2014).

In test [1] the target is T1, MMP-9 enzyme (Homo sapiens, UniProt P14780). Briefly: off-chip experiment, IC50 of MMP-9 inhibitors. Type of test: biochemical. The conditions noted are these: read-out: IC50 from the off-chip experiment. The source says:
These deviations in the values of IC50 are acceptable, considering enzyme as a biological sample with variable properties.

The target of test [2] is matrix metalloproteases-9 (MMP-9) (Homo sapiens, UniProt P14780). Put plainly: on-chip (microfluidic chip) logistic dose response of MMP-9 inhibitors, fluorogenic MMP substrate III. The note with it: for deviation in the IC50 values between on-chip and off-chip experiment: comparison on-chip vs off-chip; for IC50: on-chip, 22.15 μM substrate, 5 nM enzyme, inhibitor range 0.063 nM~250 nM, four parameter logistic fit, read-out: IC50 (on-chip, from dose response plots). Type of test: biochemical.
Source text: Therefore, a concentration range of 0 to 1000×, in logarithmic scale, is able to be generated in a single experiment.
To determine the kinetic parameters, KM and kcat, the initial velocities of the individual reactions are able to be curve-fitted with the Michaelis-Menten equation using the enzyme kinetics module of Sigmaplot software (Systat software Inc.). For IC50 values with standard error, and 95% confidence interval, the four parameter nonlinear-logistic-regression model available to the inhibition data are curve-fitted. The four parameter model is of the form as shown in the equation (1) below.
[formula] Where, IC50 refers to median point of the concentration-response plot; [I] represents the concentration of inhibitor; h is the Hill coefficient or Hill slope, which means the steepness of dose-response plot; %I designates percentage inhibiting potency, including minimum and maximum.
Therefore, by introducing the three concentrations of inhibitor and buffer, meaningful logarithmic concentrations for dose response are generated such as 0, 1, 2.5, 5, 7.5, 10, 25, 50, 75, 100, 250, 500, 750 and 1000× by the device disclosed herein in semi-direct dilution.
An inhibitor concentration range of 0.063 nM˜250 nM (1:4000) is created on the chip in the 14 reactors. Note that, all the 14 reactors are used considering the requirement of a wider concentration range of inhibitors (FIG. 2D), 22.15 μM of substrate and 5 nM of enzyme are used, respectively.
The substrate QXLTM520-Pro-Leu-Gly-Cys-(Me)-His-Ala-D-Arg-Lys-(5-carboxy-fluorescein)-NH2 (AnaSpec Inc), internally quenched peptide matrix of matrix metalloproteinases-9 (MMP-9) is used for the enzyme reaction. This substrate releases fluorescent signals through dissociation of the quencher (QXLTM520) and carboxyfluorescein (FAM), fluorophore, via proteolytic cleavage by enzymatic reaction. […] For establishing a standard curve, reference dye, FAM-Pro-Leu-OH is used. The excitation and emission wavelengths for FAM are 480 nm and 520 nm, respectively. According to the enzyme reaction types, 50 nM, 10 nM, and 5 nM of MMP-9 are separately dissolved into the reaction buffer (TCNBT; 50 mM Tris, 10 mM CaCl2, 150 mM NaCl, 0.05% Brij-35, 0.05% Tween-20 and 0.1% BSA at pH 7.5). For the substrate of MMP, a stock solution is prepared as 100 μM in TCNBT buffer. […] Prepared reagents are stored at −20 ° C. until dilution with TCNBT buffer for experiment.

Test [3] has as its target T1, MMP-9 enzyme. The conditions noted are these: from some literature; read-out: reported IC50 values from literature; cited from earlier work.

Like-named read-outs stand apart in the source and are kept apart here.

matrix metalloproteases-9 (MMP-9), sequence (P14780 94-707): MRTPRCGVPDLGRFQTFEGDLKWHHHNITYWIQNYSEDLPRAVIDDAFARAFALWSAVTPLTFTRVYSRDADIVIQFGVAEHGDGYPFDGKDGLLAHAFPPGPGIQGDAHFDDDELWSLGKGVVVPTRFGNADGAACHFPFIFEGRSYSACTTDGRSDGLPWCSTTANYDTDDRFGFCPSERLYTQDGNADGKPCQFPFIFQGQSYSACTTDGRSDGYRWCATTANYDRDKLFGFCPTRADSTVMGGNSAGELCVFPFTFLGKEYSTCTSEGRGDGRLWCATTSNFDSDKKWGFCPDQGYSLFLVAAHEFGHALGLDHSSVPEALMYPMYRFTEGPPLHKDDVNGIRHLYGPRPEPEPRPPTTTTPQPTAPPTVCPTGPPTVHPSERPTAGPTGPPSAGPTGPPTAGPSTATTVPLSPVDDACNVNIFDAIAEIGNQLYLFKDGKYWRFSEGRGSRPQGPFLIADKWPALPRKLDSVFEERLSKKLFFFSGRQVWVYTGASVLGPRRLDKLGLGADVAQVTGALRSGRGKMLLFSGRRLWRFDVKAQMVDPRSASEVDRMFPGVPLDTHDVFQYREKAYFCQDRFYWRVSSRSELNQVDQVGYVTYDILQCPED
T1 sequence (P14780 94-707): as above

As a reminder, the IC50 is the point on the concentration scale where inhibition reaches its midpoint. As for `CC(C)(NS(=O)(=O)c1ccc(Oc2ccc(F)cc2)cc1)C(=O)NO` [CP417474], the IC50 on MMP-9 enzyme [1] came out at 14.9 ± 0.9 nM; in test [2] it was 11.9 ± 1 nM. Further, in test [2], the “deviation in the IC50 values between on-chip and off-chip experiment” value stood at 20%.
Take `CNC(=O)[C@H](Cc1ccccc1)NC(=O)[C@H](CC(C)C)[C@H](CSc1cccs1)C(=O)NO` [batimastat]: the half-maximal inhibitory concentration (IC50) on MMP-9 enzyme [3] was 3 to 4 nM; at MMP-9 enzyme [1], 3.5 ± 0.3 nM; in test [2] it was 4.1 ± 0.2 nM.
As for `CNC(=O)[C@@H](NC(=O)[C@H](CC(C)C)[C@H](O)C(=O)NO)C(C)(C)C` [marimastat], the “deviation in the IC50 values between on-chip and off-chip experiment” value in test [2] is recorded as 3.2%.
